From patent publication US20220370416A1, “COMPOUNDS AND METHODS FOR TARGETED DEGRADATION OF KRAS” (Arvinas Operations, Inc., priority 2020, published 2022)

Tests used:
[1] = target: T1, KRAS^G12C (Homo sapiens, UniProt P01116, G12C); assay: KRAS^G12C engagement and degradation by immunoblot in SW1573 cells; type: cell-based; set-up: MRTX849-VHL bifunctional compounds engage and degrade endogenous KRAS^G12C in NCI-H2030 cells; endogenous in cells; host or cells: NCI-H2030, NCI-H358, MIA PaCa-2, SW1573, NCI-H23; details: for KRAS, two-way ANOVA significance vs DMSO: FIG. 11
Method: NCI-H2030 (CRL-5914), MIA PaCa-2 (CRL-1420), NCI-H23 (CRL-5800), NCI-H358 (CRL-5807), and HCT-116 (CCL-247) cells were obtained from ATCC, expanded immediately, and frozen down. Vials were thawed and used within 20 passages. SW1573 cells were a gift from Arvinas and were handled in the same manner. NCI-H2030, NCI-H23, and NCI-H358 were cultured in RPMI (ATCC30-2001) supplemented with 10% FBS (Biological Industries; cat. no. S1480) and 1% Penicillin-Streptomycin (ThermoFisher; cat. no. 15140122). HCT-116 cells were maintained in high glucose DMEM (ThermoFisher; cat. no. 11965084) supplemented as above. MIA PaCa-2 cells were cultured in high glucose DMEM supplemented with 10% FBS, 2.5% horse serum (ThermoFisher; cat. no. 26050-088; lot 2109875), and 1% Penicillin-Streptomycin. SW1573 cells were maintained in DMEM/F12 Nutrient Mix with GlutaMAX supplement (ThermoFisher; cat. no. 10565018) with 10% FBS and 1% Penicillin-Streptomycin added. DPBS (ThermoFisher; cat. no. 14190250) was used to wash cells and 0.25% Trypsin-EDTA (ThermoFisher; cat. no. […]) was used to detach cells for passaging. […] The VHL ligand was generously provided by Arvinas.
Between 2.5×10^5 and 6.0×10^5 cells were seeded into 6-well plates (Corning; cat. no. 353046). The next day, media was removed and cells were treated with 2.5 μM LC-2 for 1, 2, 4, 8, 12, or 24 hours. […] For 24-hour time course experiments, cells were treated at the indicated times and concurrently lysed in RIPA buffer supplemented as described previously. For longer time course experiments and time courses in which cells were treated with LC-2 or LC-2 Epimer, cells were concurrently treated with either compound, then lysed by scraping in RIPA buffer at the indicated time points.
Cell lysates were clarified at 21000×g for 15 mins at 4° C. Protein levels were quantified using a 50:1 mixture of bicinchoninic acid solution (Millipore Sigma; cat. no. B9643) and 4% (w/v) copper(II) sulfate solution (Millipore Sigma; cat. no. C2284) incubated at 37° C. for 30 mins. Absorbance values at 560 nm were read on an EnVision 2101 Multilabel Reader (PerkinElmer). Proteins were separated using 26 well Criterion TGX precast 4-15% (cat. no. 5671085) or 8-16% (cat. no. 5671105) gradient midi gels. After separation, proteins were transferred to nitrocellulose or PVDF membranes at 76 V for 2 hours at 4° C. Blots were then blocked in 5% milk in tris-buffered saline with Tween-20 (TBST; 20 mM Tris, 150 mM NaCl, 0.02% Tween-20). After blocking, blots were incubated in primary antibody overnight (12-18 hours) at 4° C. or for 2 hours at room temperature with mild agitation at the manufacturer's indicated dilution in either 5% milk or 5% BSA in TBST. Blots were then washed thrice with TBST for 5 mins at room temperature. After washing, blots were incubated with 1:5,000-1:10,000 of donkey anti-rabbit (GE Life Sciences; NA934) or sheep anti-mouse (GE Life Sciences; NA931) secondary antibody diluted in 5% milk for 1 hour at room temperature with mild agitation. Blots were again washed thrice with TBST for 5 mins. Chemiluminescent signal was generated using Amersham ECL Prime Western Blotting Detection Reagant (GE Life Sciences; cat. no. RPN2232) or SuperSignal West Femto Maximum Sensitivity Substrate (ThermoFisher; cat. no. 34095). Images were obtained using a Bio-Rad ChemiDoc Imager. Fluorescent α-tubulin images were collected with the Bio-Rad ChemiDoc Imager using an Alexa488 filter. The primary antibodies used in this work include: KRAS (LSBio; clone 2C1; cat. no. LS-C175665), p-p42/44 MAPK (phospho T202/Y204) (pErk; Cell Signaling Technologies (CST); cat. no. 4370S or 9106S), p42/44 MAPK (Erk1/2; CST; cat. no. 4695S), alpha-tubulin (CST; 2144S), and alpha-tubulin w/AlexaFluor488 (Millipore; cat. no. 16-232).
Band intensities were quantified using BioRad's Image Lab Software. […]

[2] = target: T1, KRAS^G12C; assay: KRAS^G12C engagement and degradation in homozygous, MRTX849 resistant SW1573 cells; type: cell-based; set-up: MRTX849-VHL bifunctional compounds engage and degrade endogenous KRAS^G12C in NCI-H2030 cells; endogenous in cells; host or cells: NCI-H2030, NCI-H358, MIA PaCa-2, SW1573, NCI-H23
[3] = SW1573 cells, 72 hour time course (FIG. 8)
[4] = SW1573 cells, time course (FIG. 6B)

Structure (SMILES) | time to near maximal engagement ([1]; SW1573, 2.5 μM) | KRAS^G12C engagement and protein levels ([1]; SW1573, longer time course (FIG. 8)) | change of KRAS^G12C level over 72 hours [2, 3] | duration of KRAS degradation ([1]; SW1573, 2.5 μM) | time to maximal KRAS degradation ([1]; SW1573, 2.5 μM, 6, 24, 48, 72 hours) | KRAS, two-way ANOVA significance vs DMSO ([1]; SW1573, 2.5 μM, 1 hour) | KRAS, two-way ANOVA significance vs DMSO ([1]; SW1573, 2.5 μM, 2 hours) | KRAS, two-way ANOVA significance vs DMSO ([1]; SW1573, 2.5 μM, 4 hours) | KRAS, two-way ANOVA significance vs DMSO ([1]; SW1573, 2.5 μM, 8 hours) | KRAS, two-way ANOVA significance vs DMSO ([1]; SW1573, 2.5 μM, 12 hours) | time to maximal degradation ([1]; SW1573, 2.5 μM, 24 hour time course) | KRAS, two-way ANOVA significance vs DMSO ([1]; SW1573, 2.5 μM, 24 hours) | DC50 ([1]; SW1573, homozygous KRAS^G12C) | Dmax ([1]; SW1573, homozygous KRAS^G12C) | KRAS^G12C degradation maintained for [2, 3] | time to onset of KRAS^G12C degradation [2, 3] | maximal KRAS^G12C degradation maintained up to [2, 4] | time to maximal KRAS^G12C degradation [2, 4] | induction of KRAS^G12C degradation ([2]; homozygous, MRTX849 resistant SW1573 cells (FIG. 4C))
C=C(F)C(=O)N1CCN(c2nc(OC[C@@H]3CCCN3CCCOCCC(=O)N[C@H](C(=O)N3C[C@@H](O)C[C@H]3C(=O)NCc3ccc(-c4scnc4C)cc3)C(C)(C)C)nc3c2CCN(c2cccc4cccc(Cl)c24)C3)C[C@@H]1CC#N [LC-2 Epimer, (2S,4S)-1-((S)-2-(3-(3-((S)-2-(((7-(8-chloronaphthalen-1-yl)-4-((S)-3-(cyanomethyl)-4-(2-fluoroacryloyl)piperazin-1-yl)-5,6,7,8-tetrahydropyrido[3,4-d]pyrimidin-2-yl)oxy)methyl)pyrrolidin-1-yl)propoxy)propanamido)-3,3-dimethylbutanoyl)-4-hydroxy-N-(4-(4-methylthiazol-5-yl)benzyl)pyrrolidine-2-carboxamide] | 1 h | fully engaged KRAS^G12C in SW1573 cells, but did not decrease protein levels | No change is observed | – | – | – | – | – | – | – | – | – | – | – | – | – | – | – | –
C=C(F)C(=O)N1CCN(c2nc(OC[C@@H]3CCCN3CCCOCCC(=O)N[C@H](C(=O)N3C[C@H](O)C[C@H]3C(=O)NCc3ccc(-c4scnc4C)cc3)C(C)(C)C)nc3c2CCN(c2cccc4cccc(Cl)c24)C3)C[C@@H]1CC#N [LC-2, (2S,4R)-1-((S)-2-(3-(3-((S)-2-(((7-(8-chloronaphthalen-1-yl)-4-((S)-3-(cyanomethyl)-4-(2-fluoroacryloyl)piperazin-1-yl)-5,6,7,8-tetrahydropyrido[3,4-d]pyrimidin-2-yl)oxy)methyl)pyrrolidin-1-yl)propoxy)propanamido)-3,3-dimethylbutanoyl)-4-hydroxy-N-(4-(4-methylthiazol-5-yl)benzyl)pyrrolidine-2-carboxamide] | – | – | – | sustained up to 72 hours | ≤ 24 h | N.S. | N.S. | N.S. | ** (** p < 0.01) | ** (** p < 0.01) | 12 h | *** (*** p < 0.005) | 760 ± 300 nM | > 85% | 72 h | ≤ 6 h | 24 h | 12 h | induces KRAS^G12C degradation
